The record followed here is BindingDB's records for doi:10.1016/j.bmcl.2003.08.010 (University of Manchester, 2003).

The assay is described as follows: Inhibitory activity against Escherichia coli thymidine phosphorylase.

Consider `C=CCNC(=S)NC=C1C(=O)NC(=O)NC1=O` [1-Allyl-3-(2,4,6-trioxo-tetrahydro-pyrimidin-5-ylidenemethyl)-thiourea], for which 94.8 µM corresponded to half-maximal inhibition (IC50).
